Laboratory results taken from patent US6878690B2, “Compounds and methods” (PharmAxis Pty Ltd., priority 2000, dated 2005).
Where “and” joins values, the source holds several entries; their conditions need not be identical. Identical values can stand only once.

What was measured:
[1] = system: passively transferred adjuvant arthritis; assay: Passively transferred adjuvant induced arthritis; format: in vivo, DA rats; details: 25 mg/kg/day, end of the one week treatment period, FIG. 1
Procedure: Male DA rats 8 to 10 week old were immunised with three 100 microliter injections of Complete Freund's Adjuvant (CFA) intradermally at the base of the tail. The CFA was prepared by mixing 8 mg/ml of Mycobacterium butyricum (Difco Laboratories, USA) that had been ground to a fine powder using a mortar and pestle, in 85% light mineral oil (Sigma, USA) and 15% mannide monooleate (Sigma) and emulsifying this suspension, one part in one part saline. Thus, the final emulsion contained 4 mg/ml of M. butyricum.
Ten days after immunisation the rats were euthanased and the spleens removed aseptically. A single cell suspension was prepared in the usual manner in mixed lymphocyte culture medium (MLC) (Dulbecco's Modified Eagle's Medium (DMEM) plus glucose, folic acid, L-asparagine, sodium pyruvate, HEPES, 2-mercapto ethanol, penicillin, streptomycin, neomycin and 10% fetal calf serum) by pushing the spleens through a stainless steel sieve. The cells were placed in culture in MLC medium with 2 micrograms/ml concanavalin A added such that the lymphocyte concentration was 2 million cells per milliliter. These cells were cultured aseptically at 37° C. in an atmosphere containing 5% carbon dioxide for 72 hours.
Groups of 4 or 5 DA rats, 6 to 8 weeks of age were anesthetised with diethyl ether and implanted subcutaneously on the flank with Alzet 2002 (2 week delivery) or 2001 (1 week delivery) mini-osmotic pumps (Alza Corp., Palo Alto Calif., USA). One treatment group received phosphoric acid mono-(6-propyl-3,4,5-trihydroxy-tetrahydro-pyran-2-ylmethyl) ester in the one week delivery Alzet 2001 mini-osmotic pumps. The drug was delivered at a dose of 25 mg/kg/day. The control group for this experiment received identical mini-osmotic pumps containing normal saline. In a second experiment another group of DA rats received ethyl (3,4,5-trihydroxy-6-phosphonooxymethyl-tetrahydro-pyran-2-yl)-acetic acid ester in the two week delivery Alzet 2002 mini-osmotic pumps. This drug was delivered at a dose of 37 mg/kg/day. Control animals for this group received saline delivered in identical mini-osmotic pumps. The pumps in each case were implanted subcutaneously on the flank of each animal. […]
After 5 to 8 days, a characteristic thickening and cutaneous hyperemia of the distal joints of the hind legs became clinically apparent in the saline control animals. Disease severity was evaluated and graded in each group by taking daily measurements of the mediolateral widths of both ankle joints. The data were expressed as the mean of the change (compared with width prior to cell injection) in mediolateral ankle width expressed in millimeters (±standard error of the mean).

[2] = system: passively transferred EAE; assay: Passively transferred EAE induced with encephalitogenic MBP-specific T cell line (Example 23); format: in vivo, Lewis rats; details: for clinical scores treated, mean: group mean; for clinical scores treated, mean / clinical scores treated: scale 0 to 5; for clinical scores treated: individual rats, 45 mg/kg/rat/day mini-osmotic pump
Procedure: In order to study the effect of the agents of the present invention in vivo on a disease caused by T lymphocyte migration into a specific tissue, experiments were performed in the Lewis rat model of passively transferred EAE. Here, myelin basic protein (MBP)-specific T lymphocyte cell lines were generated from the draining lymph nodes of Lewis rats that had been immunised with MBP in Freund's complete adjuvant essentially according to the method of Ben-Nun et al. (1981) as described in Example 8. Thus, in this manner, donor T lymphocytes were generated from female 10 to 12 week old Lewis rats weighing 150 to 200 g. These rats were injected intradermally in a footpad of each hind foot with an emulsion of Guinea pig myelin basic protein (MBP; prepared according to the method of Deibler et al., 1972; incorporated herein by reference) in Freund's complete adjuvant (0.05 ml). The adjuvant emulsion was prepared by emulsifying equal volumes of a mixture of light mineral oil (Sigma) and normal saline containing Guinea pig myelin basic protein (0.5 mg/ml) and Mycobacterium butyricum (4 mg/ml; Difco). Thus, the total dose per rat was 50 micrograms of MBP and 400 micrograms of M. butyricum. Approximately 11 days following injection, the rats were euthanased and the draining lymph nodes (popliteal and inguinal) removed aseptically by blunt dissection and placed into mixed lymphocyte culture medium. This medium was prepared in the normal fashion from Dulbecco's Modified Eagle's Medium (DMEM; GIBCO, Grand Island, N.Y.) supplemented with glucose, folic acid, L-asparagine, sodium bicarbonate, L-glutamine, sodium pyruvate, HEPES, 2-mercaptoethanol (5×10^−5 M), penicillin, streptomycin, neomycin, and 2% fetal calf serum. A single cell suspension was prepared from the lymph nodes in the usual manner by gently pushing the nodes through a stainless steel screen. The cells were washed twice in the culture medium and following this procedure, any red blood cells were lysed in the usual manner by treating with a solution of ammonium chloride, EDTA and sodium hydrogen carbonate (pH 7.3) and the preparation strained (Falcon 2350 cell strainer). The cells were washed again in the lymphocyte culture medium. All cell preparative steps were performed on ice. These cells were cultured asceptically for 72 hours at 37° C. in a humidified atmosphere containing 7.5% carbon dioxide at a concentration of 5 million cells per milliliter in the presence of MBP (0.06 mg/ml). The cells were collected and the lymphoblasts were isolated by centrifugation on a Ficoll (Pharmacia, Uppsala, Sweden) gradient in an identical manner to that described by Ben Nun et al. (1981). The fraction containing ≧90% lymphoblasts was cultured and propagated in Eagle's medium supplemented with 15% of a concanavalin A-stimulated lymphocyte supernatant to provide growth factors, 10% fetal calf serum, nonessential amino acids (Bio-Lab, Jerusalem, Israel); sodium pyruvate, 2-mercapto ethanol and antibiotics without added antigen. The cells were plated in 100 mm petri dishes at a concentration of 0.2 million cells/ml and replated every 3 or 4 days. Prior to transfer into Lewis recipients, the cells were restimulated in the presence of MBP (0.01 mg/ml) and irradiated syngeneic thymocytes for 4 days.
These cells were highly encephalitogenic sine as few as 500,000 cells were capable of inducing disease when injected into naïve Lewis rats. Thus, in a typical experiment a group of 5 female Lewis rats, approximately 9 weeks old, weighing 110±15 grams were anesthetised with diethyl ether and implanted with mini-osmotic pumps (Alzet 2002, Alza Corp., Palo Alto Calif., USA) containing phosphoric acid mono-(6-propyl-3,4,5-trihydroxy-tetrahydro-pyran-2-ylmethyl) ester mono sodium salt dissolved in normal saline at a concentration that delivered the drug at a rate of 45 mg/kg/rat/day. […]

CCCC1OC(COP(=O)(O)O)C(O)C(O)C1O (stereo not drawn) [phosphoric acid mono-(6-propyl-3,4,5-trihydroxy-tetrahydro-pyran-2-ylmethyl) ester]
swelling in the affected joints of treated animals ([1]; one week Alzet 2001 pump subcutaneously, controls severe swelling): little swelling | disease status of the treated versus the control animals ([1]; one week Alzet 2001 pump): highly statistically significant difference | clinical scores treated, mean ([2]; day 4, 45 mg/kg/rat/day): 0 | clinical scores treated ([2]; day 4): 0 | clinical scores treated, mean ([2]; day 5, 45 mg/kg/rat/day): 0.6 | clinical scores treated ([2]; day 5, 45 mg/kg): 1 (3×) and 0 (2×) | clinical scores treated, mean ([2]; day 6, 45 mg/kg/rat/day): 1 | clinical scores treated ([2]; day 6, 45 mg/kg): 2 (2×) and 0 (2×) and 1 | clinical scores treated, mean ([2]; day 7, 45 mg/kg/rat/day): 0.4 | clinical scores treated ([2]; day 7, 45 mg/kg): 0 (3×) and 1 (2×) | Mean maximum clinical score ([2]; treated group, 45 mg/kg/rat/day, control group 2.0): clinical score 1.0 | disease index (DI) ([2]; treated group, 45 mg/kg/rat/day, control group DI 160): DI 40
